Data from patent publication US20160271263A1 (Novo Nordisk A/S, priority 2010, published 2016).
pEC50: −log10 of the molar value.

Target: glucagon receptor (Homo sapiens, UniProt P47871)
Test: cell-based

glucagon receptor, sequence (P47871 26-477): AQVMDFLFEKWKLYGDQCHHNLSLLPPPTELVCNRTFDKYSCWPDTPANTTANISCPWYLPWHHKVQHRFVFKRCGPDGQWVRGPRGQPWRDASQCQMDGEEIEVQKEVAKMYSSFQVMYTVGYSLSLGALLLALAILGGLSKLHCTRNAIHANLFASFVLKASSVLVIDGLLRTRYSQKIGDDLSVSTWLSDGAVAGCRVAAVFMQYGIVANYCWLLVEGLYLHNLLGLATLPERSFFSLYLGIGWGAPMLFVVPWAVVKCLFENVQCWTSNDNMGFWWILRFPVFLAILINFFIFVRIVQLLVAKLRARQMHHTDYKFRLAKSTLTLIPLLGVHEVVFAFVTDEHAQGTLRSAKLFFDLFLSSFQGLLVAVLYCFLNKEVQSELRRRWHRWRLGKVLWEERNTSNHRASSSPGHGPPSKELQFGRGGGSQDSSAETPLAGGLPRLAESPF

pEC50 | SMILES
8.80 | CC(C)C[C@H](NC(=O)[C@H](Cc1ccc(O)cc1)NC(=O)[C@H](CCCCNC(=O)CC[C@H](NC(=O)CC[C@H](NC(=O)COCCOCCNC(=O)COCCOCCNC(=O)CC[C@H](NC(=O)CCCCCCCCCCCCCCCCC(=O)O)C(=O)O)C(=O)O)C(=O)O)NC(=O)[C@H](CO)NC(=O)[C@H](Cc1ccc(O)cc1)NC(=O)[C@H](CC(=O)O)NC(=O)[C@H](CO)NC(=O)[C@@H](NC(=O)[C@H](Cc1ccccc1)NC(=O)[C@@H](NC(=O)CNC(=O)[C@H](CCC(N)=O)NC(=O)[C@H](CO)NC(=O)[C@@H](N)Cc1c[nH]cn1)[C@@H](C)O)[C@@H](C)O)C(=O)N[C@@H](CC(=O)O)C(=O)N[C@@H](CO)C(=O)N[C@@H](CCCNC(=N)N)C(=O)N[C@@H](CCCNC(=N)N)C(=O)N[C@@H](C)C(=O)N[C@@H](CCC(N)=O)C(=O)N[C@@H](CC(=O)O)C(=O)N[C@@H](Cc1ccccc1)C(=O)N[C@H](C(=O)N[C@@H](CCC(N)=O)C(=O)N[C@@H](Cc1c[nH]c2ccccc12)C(=O)N[C@@H](CC(C)C)C(=O)N[C@@H](CC(C)C)C(=O)N[C@@H](CC(N)=O)C(=O)N1CCC[C@H]1C(=O)O)C(C)C [Example 80, N^ε12-[(4S)-4-carboxy-4-[[(4S)-4-carboxy-4-[[2-[2-[2-[[2-[2-[2-[[(4S)-4-carboxy-4-(17-carboxyheptadecanoylamino)butanoyl]amino]ethoxy]ethoxy]acetyl]amino]ethoxy]ethoxy]acetyl]amino]butanoyl]amino]butanoyl]-[Leu^27,Pro^29]-Glucagon]
9.81 | CC(C)C[C@H](NC(=O)[C@H](Cc1ccc(O)cc1)NC(=O)[C@H](CCCCN)NC(=O)[C@H](CO)NC(=O)[C@H](Cc1ccc(O)cc1)NC(=O)[C@H](CC(=O)O)NC(=O)[C@H](CO)NC(=O)[C@@H](NC(=O)[C@H](Cc1ccccc1)NC(=O)[C@@H](NC(=O)CNC(=O)[C@H](CCC(N)=O)NC(=O)[C@H](CO)NC(=O)[C@@H](N)Cc1c[nH]cn1)[C@@H](C)O)[C@@H](C)O)C(=O)N[C@@H](CC(=O)O)C(=O)N[C@@H](CO)C(=O)N[C@@H](CCCNC(=N)N)C(=O)N[C@@H](CCCNC(=N)N)C(=O)N[C@@H](C)C(=O)N[C@@H](CCC(N)=O)C(=O)N[C@@H](CC(=O)O)C(=O)N[C@@H](Cc1ccccc1)C(=O)N[C@H](C(=O)N[C@@H](CCCCNC(=O)CC[C@H](NC(=O)CC[C@H](NC(=O)COCCOCCNC(=O)COCCOCCNC(=O)CC[C@H](NC(=O)CCCCCCCCCCCCCCCCC(=O)O)C(=O)O)C(=O)O)C(=O)O)C(=O)N[C@@H](Cc1c[nH]c2ccccc12)C(=O)N[C@@H](CC(C)C)C(=O)N[C@@H](CC(C)C)C(=O)N[C@@H](CC(N)=O)C(=O)N1CCC[C@H]1C(=O)O)C(C)C [Example 81, N^ε24-[(4S)-4-carboxy-4-[[(4S)-4-carboxy-4-[[2-[2-[2-[[2-[2-[2-[[(4S)-4-carboxy-4-(17-carboxyheptadecanoylamino)butanoyl]amino]ethoxy]ethoxy]acetyl]amino]ethoxy]ethoxy]acetyl]amino]butanoyl]amino]butanoyl]-[Lys^24,Leu^27,Pro^29]-Glucagon]
9.89 | CC(C)C[C@H](NC(=O)[C@H](Cc1ccc(O)cc1)NC(=O)[C@H](CCCCN)NC(=O)[C@H](CO)NC(=O)[C@H](Cc1ccc(O)cc1)NC(=O)[C@H](CC(=O)O)NC(=O)[C@H](CO)NC(=O)[C@@H](NC(=O)[C@H](Cc1ccccc1)NC(=O)[C@@H](NC(=O)CNC(=O)[C@H](CCC(N)=O)NC(=O)[C@H](CO)NC(=O)[C@@H](N)Cc1c[nH]cn1)[C@@H](C)O)[C@@H](C)O)C(=O)N[C@@H](CC(=O)O)C(=O)N[C@@H](CO)C(=O)N[C@@H](CCCNC(=N)N)C(=O)N[C@@H](CCCNC(=N)N)C(=O)N[C@@H](C)C(=O)N[C@@H](CCC(N)=O)C(=O)N[C@@H](CC(=O)O)C(=O)N[C@@H](Cc1ccccc1)C(=O)N[C@H](C(=O)N[C@@H](CCC(N)=O)C(=O)N[C@@H](Cc1c[nH]c2ccccc12)C(=O)N[C@@H](CC(C)C)C(=O)N[C@@H](CC(C)C)C(=O)N[C@@H](CCCCNC(=O)CC[C@H](NC(=O)CC[C@H](NC(=O)COCCOCCNC(=O)COCCOCCNC(=O)CC[C@H](NC(=O)CCCCCCCCCCCCCCCCC(=O)O)C(=O)O)C(=O)O)C(=O)O)C(=O)N[C@H](C(=O)N1CCC[C@H]1C(=O)O)[C@@H](C)O)C(C)C [Example 82, N^ε28-[(4S)-4-carboxy-4-[[(4S)-4-carboxy-4-[[2-[2-[2-[[2-[2-[2-[[(4S)-4-carboxy-4-(17-carboxyheptadecanoylamino)butanoyl]amino]ethoxy]ethoxy]acetyl]amino]ethoxy]ethoxy]acetyl]amino]butanoyl]amino]butanoyl]-[Leu^27,Lys^28]-Glucagonyl-Pro]
8.93 | CC(C)C[C@H](NC(=O)[C@H](Cc1ccc(O)cc1)NC(=O)[C@H](CCCCN)NC(=O)[C@H](CO)NC(=O)[C@H](Cc1ccc(O)cc1)NC(=O)[C@H](CC(=O)O)NC(=O)[C@H](CO)NC(=O)[C@@H](NC(=O)[C@H](Cc1ccccc1)NC(=O)[C@@H](NC(=O)CNC(=O)[C@H](CCC(N)=O)NC(=O)[C@H](CO)NC(=O)[C@@H](N)Cc1c[nH]cn1)[C@@H](C)O)[C@@H](C)O)C(=O)N[C@@H](CC(=O)O)C(=O)N[C@@H](CO)C(=O)N[C@@H](CCCNC(=N)N)C(=O)N[C@@H](CCCNC(=N)N)C(=O)N[C@@H](C)C(=O)N[C@@H](CCC(N)=O)C(=O)N[C@@H](CC(=O)O)C(=O)N[C@@H](Cc1ccccc1)C(=O)N[C@H](C(=O)N[C@@H](CCC(N)=O)C(=O)N[C@@H](Cc1c[nH]c2ccccc12)C(=O)N[C@@H](CC(C)C)C(=O)N[C@@H](CCCCNC(=O)CC[C@H](NC(=O)CC[C@H](NC(=O)COCCOCCNC(=O)COCCOCCNC(=O)CC[C@H](NC(=O)CCCCCCCCCCCCCCCCC(=O)O)C(=O)O)C(=O)O)C(=O)O)C(=O)N[C@@H](CC(N)=O)C(=O)N1CCC[C@H]1C(=O)O)C(C)C [Example 85, N^ε27-[(4S)-4-carboxy-4-[[(4S)-4-carboxy-4-[[2-[2-[2-[[2-[2-[2-[[(4S)-4-carboxy-4-(17-carboxyheptadecanoylamino)butanoyl]amino]ethoxy]ethoxy]acetyl]amino]ethoxy]ethoxy]acetyl]amino]butanoyl]amino]butanoyl]-[Lys^27,Pro^29]-Glucagon]
9.72 | CC(C)C[C@H](NC(=O)[C@H](Cc1ccc(O)cc1)NC(=O)[C@H](CCCCN)NC(=O)[C@H](CO)NC(=O)[C@H](Cc1ccc(O)cc1)NC(=O)[C@H](CC(=O)O)NC(=O)[C@H](CO)NC(=O)[C@@H](NC(=O)[C@H](Cc1ccccc1)NC(=O)[C@@H](NC(=O)CNC(=O)[C@H](CCC(N)=O)NC(=O)[C@H](CO)NC(=O)[C@@H](N)Cc1c[nH]cn1)[C@@H](C)O)[C@@H](C)O)C(=O)N[C@@H](CC(=O)O)C(=O)N[C@@H](CO)C(=O)N[C@@H](CCCNC(=N)N)C(=O)N[C@@H](CCCNC(=N)N)C(=O)N[C@@H](C)C(=O)N[C@@H](CCC(N)=O)C(=O)N[C@@H](CC(=O)O)C(=O)N[C@@H](Cc1ccccc1)C(=O)N[C@H](C(=O)N[C@@H](CCC(N)=O)C(=O)N[C@@H](Cc1c[nH]c2ccccc12)C(=O)N[C@@H](CC(C)C)C(=O)N[C@@H](CC(C)C)C(=O)N[C@@H](CCCCNC(=O)CC[C@H](NC(=O)CC[C@H](NC(=O)COCCOCCNC(=O)COCCOCCNC(=O)CC[C@H](NC(=O)CCCCCCCCCCCCCCCCC(=O)O)C(=O)O)C(=O)O)C(=O)O)C(=O)N1CCC[C@H]1C(=O)O)C(C)C [Example 86, N^ε28-[(4S)-4-carboxy-4-[[(4S)-4-carboxy-4-[[2-[2-[2-[[2-[2-[2-[[(4S)-4-carboxy-4-(17-carboxyheptadecanoylamino)butanoyl]amino]ethoxy]ethoxy]acetyl]amino]ethoxy]ethoxy]acetyl]amino]butanoyl]amino]butanoyl]-[Leu^27,Lys^28,Pro^29]-Glucagon]
